What was measured:
[1] = FAO/WHO Codex Alimentarius Commission, 1973; cited from earlier work
[2] = tested on: Helicobacter pylori ATCC 43504 strain
Procedure: Helicobacter pylori (ATCC 43504 strain, purchased from American Type Culture Collection) was cultured with use of a 96-well plate. […] After inoculation of Helicobacter pylori, the plate was introduced in a sealed vessel of 2.5 liter volume, into which Anaero Pack-Helico (made by Mitsubishi Gas Chemical), an agent for absorbing oxygen and generating carbon dioxide gas, was also introduced, and cultured for 5 days under an anaerobic condition at 37° C.
Growth of Helicobacter pylori was determined by means of a 96-well plate reader with use of a 540 nm or 595 nm filter. Herein, as a control for absorbance determination, a medium without EDTA was used.

SMILES | acceptable daily intake (ADI) as a food additive [1] | concentration at which growth of Helicobacter pylori is inhibited ([2]; ATCC 43504 strain, medium pH 8.0, cultured 5 days at 37° C under anaerobic condition, turbidity at 540 nm or 595 nm against control medium, from FIG. 1 / FIG. 2) [mM] | amount to be taken to inhibit growth of Helicobacter pylori ([2]; calculated for a human stomach volume of about 1.5 L, amount of the salt) [mg] | amount to be taken to inhibit growth of Helicobacter pylori, as free EDTA ([2]; calculated for a human stomach volume of about 1.5 L, expressed as free EDTA) [mg] | growth-inhibiting concentration converted into ([2]; conversion of 0.025-1 mM using molecular weight 372Da) [mg/L]
O=C(O)CN(CCN(CC(=O)O)CC(=O)O)CC(=O)O [EDTA, Ethylenediaminetetraacetic acid] | 2.5 mg/kg of weight | – | – | – | –
O=C([O-])CN(CCN(CC(=O)O)CC(=O)O)CC(=O)[O-].[Na+].[Na+] [disodium ethylenediaminetetraacetate] | – | 0.025 to 1 | 14 to 558 | 11 to 438 | 9.3 to 372

Reference: US20020058696A1, “Chelate compound-containing antibacterial agent for helicobacter pylori” (DIRECTOR OF NTL. INST. OF AGROBIOLOGICAL RESOURCES , …, priority 2000, published 2002)
